Data from PubChem BioAssay AID2060895 (Molecular Pharmacology Branch, DTP, NCI, 2025).

System: PDC 899932-113-R3-J6 complex spheroid viability
Assay: Anticancer human tumor 899932-113-R3-J6-PDC patient-derived melanoma cell line growth inhibition [RAS]
Details: for IC50: curve of first compound; for viability, T/C: stronger effect = lower value; active means viability on the fitted dose curve at most 10% of control; inactive means the rest
Summary of the method: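 Multi-cell-type spheroids: tumor cells plus HUVEC endothelial cells and mesenchymal stem cells. RAS-pathway inhibitors were combined with targeted agents, each dosed in half-log steps down from clinical Cmax, or from 10 microM when Cmax was unknown.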
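Wherever viability, T/C is given: spheroids exposed to agents for seven days before readout; 100% = DMSO vehicle control wells.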

CC(=O)OC12COC1CC(O)C1(C)C(=O)C(O)C3=C(C)C(OC(=O)C(O)C(NC(=O)OC(C)(C)C)c4ccccc4)CC(O)(C(OC(=O)c4ccccc4)C21)C3(C)C (centres undefined) + CCn1c(-c2cc(N3CCN(C)CC3)cnc2C(C)OC)c2c3cc(ccc31)-c1csc(n1)CC(NC(=O)C1CC1C)C(=O)N1CCCC(N1)C(=O)OCC(C)(C)C2
active: viability, T/C (second compound 0.00949 µM, first compound 0.0316 µM) 3.98% | viability, T/C (second compound 0.00949 µM, first compound 0.1 µM) 3.52% | viability, T/C (second compound 0.00949 µM, first compound 0.316 µM) 3.63% | viability, T/C (second compound 0.00949 µM, first compound 1 µM) 3.09% | viability, T/C (second compound 0.00949 µM, first compound 3.16 µM) 3.96% | viability, T/C (second compound 0.00949 µM, first compound 10 µM) 4.11% | viability, T/C (second compound 0.03 µM, first compound 0.0316 µM) 2.05% | viability, T/C (second compound 0.03 µM, first compound 0.1 µM) 1.55% | viability, T/C (second compound 0.03 µM, first compound 0.316 µM) 1.79% | viability, T/C (second compound 0.03 µM, first compound 1 µM) 1.78% | viability, T/C (second compound 0.03 µM, first compound 3.16 µM) 1.72% | viability, T/C (second compound 0.03 µM, first compound 10 µM) 1.3% | viability, T/C (second compound 0.0949 µM, first compound 0.0316 µM) 1.14% | viability, T/C (second compound 0.0949 µM, first compound 0.1 µM) 1.02% | viability, T/C (second compound 0.0949 µM, first compound 0.316 µM) 1.61% | viability, T/C (second compound 0.0949 µM, first compound 1 µM) 0.79% | viability, T/C (second compound 0.0949 µM, first compound 3.16 µM) 0.68% | viability, T/C (second compound 0.0949 µM, first compound 10 µM) 0.72% | viability, T/C (second compound 0.3 µM, first compound 0.0316 µM) 1.95% | viability, T/C (second compound 0.3 µM, first compound 0.1 µM) 0.96% | viability, T/C (second compound 0.3 µM, first compound 0.316 µM) 1.47% | viability, T/C (second compound 0.3 µM, first compound 1 µM) 0.52% | viability, T/C (second compound 0.3 µM, first compound 3.16 µM) 0.57% | viability, T/C (second compound 0.3 µM, first compound 10 µM) 0.59%
inactive: viability, T/C (second compound 0.000949 µM, first compound 0.0316 µM) 18.6% | viability, T/C (second compound 0.000949 µM, first compound 0.1 µM) 18.4% | viability, T/C (second compound 0.000949 µM, first compound 0.316 µM) 26.5% | viability, T/C (second compound 0.000949 µM, first compound 1 µM) 36.3% | viability, T/C (second compound 0.000949 µM, first compound 3.16 µM) 45.5% | viability, T/C (second compound 0.000949 µM, first compound 10 µM) 47.2% | viability, T/C (second compound 0.003 µM, first compound 0.0316 µM) 8.34% | viability, T/C (second compound 0.003 µM, first compound 0.1 µM) 10.3% | viability, T/C (second compound 0.003 µM, first compound 0.316 µM) 12.4% | viability, T/C (second compound 0.003 µM, first compound 1 µM) 14.1% | viability, T/C (second compound 0.003 µM, first compound 3.16 µM) 18.3% | viability, T/C (second compound 0.003 µM, first compound 10 µM) 21.1%
< 31.6 nM: IC50 (second compound 0.000949 µM) | IC50 (second compound 0.003 µM) | IC50 (second compound 0.00949 µM) | IC50 (second compound 0.03 µM) | IC50 (second compound 0.0949 µM) | IC50 (second compound 0.3 µM)

CCc1c2c(nc3ccc(O)cc13)-c1cc3c(c(=O)n1C2)COC(=O)[C@]3(O)CC + CCn1c(-c2cc(N3CCN(C)CC3)cnc2C(C)OC)c2c3cc(ccc31)-c1csc(n1)CC(NC(=O)C1CC1C)C(=O)N1CCCC(N1)C(=O)OCC(C)(C)C2
active: viability, T/C (second compound 0.00949 µM, first compound 0.000949 µM) 3.79% | viability, T/C (second compound 0.00949 µM, first compound 0.003 µM) 3.32% | viability, T/C (second compound 0.00949 µM, first compound 0.00949 µM) 3.11% | viability, T/C (second compound 0.00949 µM, first compound 0.03 µM) 3.28% | viability, T/C (second compound 0.00949 µM, first compound 0.0949 µM) 3.1% | viability, T/C (second compound 0.00949 µM, first compound 0.3 µM) 3.34% | viability, T/C (second compound 0.03 µM, first compound 0.000949 µM) 2.49% | viability, T/C (second compound 0.03 µM, first compound 0.003 µM) 2.47% | viability, T/C (second compound 0.03 µM, first compound 0.00949 µM) 2.92% | viability, T/C (second compound 0.03 µM, first compound 0.03 µM) 2.25% | viability, T/C (second compound 0.03 µM, first compound 0.0949 µM) 2.41% | viability, T/C (second compound 0.03 µM, first compound 0.3 µM) 2.31% | viability, T/C (second compound 0.0949 µM, first compound 0.000949 µM) 2.12% | viability, T/C (second compound 0.0949 µM, first compound 0.003 µM) 2.87% | viability, T/C (second compound 0.0949 µM, first compound 0.00949 µM) 2.12% | viability, T/C (second compound 0.0949 µM, first compound 0.03 µM) 2.27% | viability, T/C (second compound 0.0949 µM, first compound 0.0949 µM) 1.31% | viability, T/C (second compound 0.0949 µM, first compound 0.3 µM) 1.12% | viability, T/C (second compound 0.3 µM, first compound 0.000949 µM) 1.75% | viability, T/C (second compound 0.3 µM, first compound 0.003 µM) 2.65% | viability, T/C (second compound 0.3 µM, first compound 0.00949 µM) 2.22% | viability, T/C (second compound 0.3 µM, first compound 0.03 µM) 1.86% | viability, T/C (second compound 0.3 µM, first compound 0.0949 µM) 1.47% | viability, T/C (second compound 0.3 µM, first compound 0.3 µM) 1.58%
< 0.949 nM: IC50 (second compound 0.003 µM) | IC50 (second compound 0.00949 µM) | IC50 (second compound 0.03 µM) | IC50 (second compound 0.0949 µM) | IC50 (second compound 0.3 µM)
2 nM: IC50 (second compound 0.000949 µM)
inactive: viability, T/C (second compound 0.000949 µM, first compound 0.000949 µM) 63.8% | viability, T/C (second compound 0.000949 µM, first compound 0.003 µM) 39.8% | viability, T/C (second compound 0.000949 µM, first compound 0.00949 µM) 36% | viability, T/C (second compound 0.000949 µM, first compound 0.03 µM) 26.9% | viability, T/C (second compound 0.000949 µM, first compound 0.0949 µM) 22.6% | viability, T/C (second compound 0.000949 µM, first compound 0.3 µM) 23% | viability, T/C (second compound 0.003 µM, first compound 0.000949 µM) 31.1% | viability, T/C (second compound 0.003 µM, first compound 0.003 µM) 24.2% | viability, T/C (second compound 0.003 µM, first compound 0.00949 µM) 16.4% | viability, T/C (second compound 0.003 µM, first compound 0.03 µM) 16.1% | viability, T/C (second compound 0.003 µM, first compound 0.0949 µM) 13.4% | viability, T/C (second compound 0.003 µM, first compound 0.3 µM) 14%
